Measured values: patent publication US20100137313A1 (ASTRAZENECA AB, priority 2008, published 2010)

target: S. pneumoniae Topoisomerase IV ATPase (ParE) (Streptococcus pneumoniae serotype 4, UniProt Q59961); experiment: S. pneumoniae Topoisomerase IV ATPase inhibition; format: biochemical; details: values marked * are an average of two or more data points, read-out: % Inh (13 μM) of S. pneumoniae Topoisomerase IV ATPase
Method in brief: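 Malachite green/ammonium molybdate phosphate detection, A650. 1.25 nM ParE, 160 μM ATP, sheared salmon sperm DNA 5 μg/ml, 20 mM Tris pH 8.0, 8.0 mM MgCl2. Controls: 2% DMSO = 0%, 20 μM EDTA = 100% inhibition; IC50 over 10 concentrations.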

Chain of S. pneumoniae Topoisomerase IV ATPase (ParE) (Q59961 whole entry): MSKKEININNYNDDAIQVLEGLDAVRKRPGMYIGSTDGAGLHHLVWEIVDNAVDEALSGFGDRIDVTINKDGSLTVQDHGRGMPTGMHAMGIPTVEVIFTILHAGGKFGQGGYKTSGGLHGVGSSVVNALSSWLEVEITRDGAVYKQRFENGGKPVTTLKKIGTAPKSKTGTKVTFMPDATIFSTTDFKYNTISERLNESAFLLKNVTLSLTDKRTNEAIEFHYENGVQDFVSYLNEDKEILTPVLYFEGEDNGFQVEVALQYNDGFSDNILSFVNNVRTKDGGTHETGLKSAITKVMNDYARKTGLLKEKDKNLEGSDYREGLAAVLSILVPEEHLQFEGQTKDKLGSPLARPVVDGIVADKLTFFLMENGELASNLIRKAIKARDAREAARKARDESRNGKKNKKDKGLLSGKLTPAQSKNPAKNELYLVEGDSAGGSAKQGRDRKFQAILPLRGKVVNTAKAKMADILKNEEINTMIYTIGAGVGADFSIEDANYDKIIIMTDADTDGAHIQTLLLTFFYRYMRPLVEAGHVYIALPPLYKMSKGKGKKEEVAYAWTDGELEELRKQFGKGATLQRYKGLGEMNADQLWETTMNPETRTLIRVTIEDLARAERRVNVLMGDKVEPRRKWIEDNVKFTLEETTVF

SMILES	inhibition at 13 µM [%]
O=C(O)c1cncc(-c2cnc(Nc3ccc(F)c(Cl)c3)nc2NCc2cccnc2)c1 [Example 223, 5-{2-(3-Chloro-4-fluoro-phenylamino)-4-[(pyridin-3-ylmethyl)-amino]-pyrimidin-5-yl}-nicotinic acid]	77.4
O=C(O)c1cncc(-c2cnc(Nc3ccc(F)c(Cl)c3)nc2NCc2ccncc2)c1 [Example 224, 5-{2-(3-Chloro-4-fluoro-phenylamino)-4-[(pyridin-4-ylmethyl)-amino]-pyrimidin-5-yl}-nicotinic acid]	78.5
CC(C)(C)OC(=O)NCCNc1nc(Nc2ccc(F)c(Cl)c2)ncc1-c1cncc(C(=O)O)c1 [Example 225, 5-[4-(2-tert-Butoxycarbonylamino-ethylamino)-2-(3-chloro-4-fluoro-phenylamino)-pyrimidin-5-yl]-nicotinic acid]	81.1
NC(=O)CCNc1nc(Nc2ccc(F)c(Cl)c2)ncc1-c1cncc(C(=O)O)c1 [Example 226, 5-[4-(2-Carbamoyl-ethylamino)-2-(3-chloro-4-fluoro-phenylamino)-pyrimidin-5-yl]-nicotinic acid]	79.5
O=C(O)c1cncc(-c2cnc(Nc3ccc(F)c(Cl)c3)nc2NCCN2CCOCC2)c1 [Example 227, 5-[2-(3-Chloro-4-fluoro-phenylamino)-4-(2-morpholin-4-yl-ethylamino)-pyrimidin-5-yl]-nicotinic acid]	79
O=C(O)c1cncc(-c2cnc(Nc3ccc(F)c(Cl)c3)nc2NCCc2ccccn2)c1 [Example 228, 5-[2-(3-Chloro-4-fluoro-phenylamino)-4-(2-pyridin-2-yl-ethylamino)-pyrimidin-5-yl]-nicotinic acid]	78.5
O=C(O)c1cncc(-c2cnc(Nc3ccc(F)c(Cl)c3)nc2NCCc2cccnc2)c1 [Example 229, 5-[2-(3-Chloro-4-fluoro-phenylamino)-4-(2-pyridin-3-yl-ethylamino)-pyrimidin-5-yl]-nicotinic acid]	85
O=C(O)c1cncc(-c2cnc(Nc3ccc(F)c(Cl)c3)nc2NCCc2ccncc2)c1 [Example 230, 5-[2-(3-Chloro-4-fluoro-phenylamino)-4-(2-pyridin-4-yl-ethylamino)-pyrimidin-5-yl]-nicotinic acid]	79.6
O=C(O)c1cncc(-c2cnc(Nc3ccc(F)c(Cl)c3)nc2NCCN2CCS(=O)(=O)CC2)c1 [Example 231, 5-{2-(3-Chloro-4-fluoro-phenylamino)-4-[2-(1,1-dioxo-1λ^6-thiomorpholin-4-yl)-ethylamino]-pyrimidin-5-yl}-nicotinic acid]	81.5
O=C(O)c1cncc(-c2cnc(Nc3ccc(F)c(Cl)c3)nc2NCCCN2CCS(=O)(=O)CC2)c1 [Example 232, 5-{2-(3-Chloro-4-fluoro-phenylamino)-4-[3-(1,1-dioxo-1λ^6-thiomorpholin-4-yl)-propylamino]-pyrimidin-5-yl}-nicotinic acid]	81
O=C(O)c1cncc(-c2cnc(Nc3ccc(F)c(Cl)c3)nc2NCCCN2CCOCC2)c1 [Example 233, 5-[2-[(3-chloro-4-fluorophenyl)amino]-4-(3-morpholin-4-ylpropylamino)pyrimidin-5-yl]pyridine-3-carboxylic acid]	75.4
COCCNc1nc(Nc2ccc(F)c(Cl)c2)ncc1-c1cncc(C(=O)O)c1 [Example 234, 5-[2-[(3-chloro-4-fluorophenyl)amino]-4-(2-methoxyethylamino)-pyrimidin-5-yl]pyridine-3-carboxylic acid]	73.2
O=C(O)c1cncc(-c2cnc(Nc3ccc(F)c(Cl)c3)nc2NCC2CCCO2)c1 (stereo not drawn) [Example 235, 5-[2-[(3-chloro-4-fluorophenyl)amino]-4-(oxolan-2-ylmethylamino)pyrimidin-5-yl]pyridine-3-carboxylic acid]	81.2
CC(C)OCCNc1nc(Nc2ccc(F)c(Cl)c2)ncc1-c1cncc(C(=O)O)c1 [Example 236, 5-[2-[(3-chloro-4-fluorophenyl)amino]-4-(2-propan-2-yloxyethyolamino)pyrimidin-5-yl]pyridine-3-carboxylic acid]	73.6
O=C(O)c1cncc(-c2cnc(Nc3ccc(F)c(Cl)c3)nc2NCc2ccco2)c1 [Example 237, 5-[2-[(3-chloro-4-fluorophenyl)amino]-4-(furan-2-ylmethylamino)pyrimidin-5-yl]pyridine-3-carboxylic acid]	85.4
O=C(O)CNc1nc(Nc2ccc(F)c(Cl)c2)ncc1-c1cncc(C(=O)O)c1 [Example 238, 5-[4-(carboxymethylamino)-2-[(3-chloro-4-fluorophenyl)amino]-pyrimidin-5-yl]pyridine-3-carboxylic acid]	72.6
O=C(O)c1cncc(-c2cnc(Nc3ccc(F)c(Cl)c3)nc2NCCOc2ccccc2)c1 [Example 239, 5-[2-[(3-chloro-4-fluorophenyl)amino]-4-(2-phenoxyethylamino)-pyrimidin-5-yl]pyridine-3-carboxylic acid]	85.1

SMILES	inhibition at 13 µM [%]
C[C@@H](Nc1nc(Nc2ccc(F)c(Cl)c2)ncc1-c1cncc(C(=O)O)c1)C(=O)O [Example 240, 5-[2-[(3-chloro-4-fluorophenyl)amino]-4-[[(2R)-1-hydroxy-1-oxopropan-2-yl]amino]pyrimidin-5-yl]pyridine-3-carboxylic acid]	45.8
O=C(O)c1cncc(-c2cnc(Nc3ccc(F)c(Cl)c3)nc2NCc2nc3ccccc3[nH]2)c1 [Example 241, 5-[4-(1H-benzimidazol-2-ylmethylamino)-2-[(3-chloro-4-fluorophenyl)amino]-pyrimidin-5-yl]pyridine-3-carboxylic acid]	71.5
Cc1cnc(CNc2nc(Nc3ccc(F)c(Cl)c3)ncc2-c2cncc(C(=O)O)c2)cn1 [Example 242, 5-[2-[(3-chloro-4-fluorophenyl)amino]-4-[(5-methylpyrazin-2-yl)methylamino]pyrimidin-5-yl]pyridine-3-carboxylic acid]	61.3
CC(C)Nc1nc(Nc2ccc(F)c(Cl)c2)ncc1-c1cncc(C(=O)O)c1 [Example 243, 5-[2-[(3-chloro-4-fluorophenyl)amino]-4-(propan-2-ylamino)pyrimidin-5-yl]pyridine-3-carboxylic acid]	83.5
O=C(O)c1cncc(-c2cnc(Nc3ccc(F)c(Cl)c3)nc2N2CCC(O)CC2)c1 [Example 244, 5-[2-[(3-chloro-4-fluorophenyl)amino]-4-(4-hydroxypiperidin-1-yl)pyrimidin-5-yl]pyridine-3-carboxylic acid]	76.3
O=C(O)c1cncc(-c2cnc(Nc3ccc(F)c(Cl)c3)nc2N2CCCC(CO)C2)c1 (stereo not drawn) [Example 245, 5-[2-[(3-chloro-4-fluorophenyl)amino]-4-[3-(hydroxymethyl)piper-idin-1-yl]pyrimidin-5-yl]pyridine-3-carboxylic acid]	83.1
O=C(O)c1cncc(-c2cnc(Nc3ccc(F)c(Cl)c3)nc2N2CCC(N3CCOCC3)CC2)c1 [Example 246, 5-[2-[(3-chloro-4-fluorophenyl)amino]-4-(4-morpholin-4-ylpiperidin-1-yl)pyrimidin-5-yl]pyridine-3-carboxylic acid]	74.9
CNC(=O)C1CCN(c2nc(Nc3ccc(F)c(Cl)c3)ncc2-c2cncc(C(=O)O)c2)CC1 [Example 247, 5-[2-[(3-chloro-4-fluoprophenyl)amino]-4-[4-(methylcarbamoyl)-piperidin-1-yl]pyrimidin-5-yl]pyridine-3-carboxylic acid]	42.2
O=C(O)c1cncc(-c2cnc(Nc3ccc(F)c(Cl)c3)nc2N2CCC(F)CC2)c1 [Example 248, 5-[2-[(3-chloro-4-fluorophenyl)amino]-4-(4-fluoropiperidin-1-yl)pyrimidin-5-yl]pyridine-3-carboxylic acid]	66.1
COC1CCN(c2nc(Nc3ccc(F)c(Cl)c3)ncc2-c2cncc(C(=O)O)c2)CC1 [Example 249, 5-[2-[(3-chloro-4-fluorophenyl)amino]-4-(4-methoxypiperidin-1-yl)pyrimidin-5-yl]pyridine-3-carboxylic acid]	70.8
O=C(O)c1cncc(-c2cnc(Nc3ccc(F)c(Cl)c3)nc2N2CCC(O)C2)c1 (stereo not drawn) [Example 250, 5[2-[(3-chloro-4-fluorophenyl)amino]-4-(3-hydroxypyrrolidin-1-yl)pyrimidin-5-yl]pyridine-3-carboxylic acid]	74.4
CC1CCCN1c1nc(Nc2ccc(F)c(Cl)c2)ncc1-c1cncc(C(=O)O)c1 (stereo not drawn) [Example 251, 5-[2-[(3-chloro-4-fluorophenyl)amino]-4-(2-methylpyrrolidin-1-yl)pyrimidin-5-yl]pyridine-3-carboxylic acid]	79.9
CC1CCC(C)N1c1nc(Nc2ccc(F)c(Cl)c2)ncc1-c1cncc(C(=O)O)c1 (stereo not drawn) [Example 252, 5-[2-[(3-chloro-4-fluorophenyl)amino]-4-(2,5-dimethylpyrrolidin-1-yl)pyrimidin-5-yl]pyridine-3-carboxylic acid]	81.8
O=C(O)c1cncc(-c2cnc(Nc3ccc(F)c(Cl)c3)nc2N2CCC2)c1 [Example 253, 5-[4-(azetidin-1-yl)-2-[(3-chloro-4-fluorophenyl)amino]-pyrimidin-5-yl]pyridine-3-carboxylic acid]	75.1
O=C(O)c1cncc(-c2cnc(Nc3ccc(F)c(Cl)c3)nc2N2CCCCCC2)c1 [Example 254, 5-[4-(azepan-1-yl)-2-[(3-chloro-4-fluorophenyl)amino]-pyrimidin-5-yl]pyridine-3-carboxylic acid]	16.8
O=C(O)c1cncc(-c2cnc(Nc3ccc(F)c(Cl)c3)nc2N[C@H]2CC[C@H](O)CC2)c1 [Example 255, 5-[2-[(3-chloro-4-fluorophenyl)amino]-4-[(4-hydroxycyclohexyl)-amino]pyrimidin-5-yl]pyridine-3-carboxylic acid]	72.8
